Test results: ChEMBL document CHEMBL1148995, “Antitumor agents from bohemic acid complex, VI. Schaunardimycin” (J Nat Prod, 1984)

How the values were obtained:
L1210 [1] = assay: Antitumor activity against mouse L1210 cells implanted in CDF1 mouse assessed as median survival time at 25.6 mg/kg, ip single dose on day 1; format: functional; conditions: route intraperitoneal
L1210 [2] = assay: Antitumor activity against mouse L1210 cells implanted in CDF1 mouse assessed as median survival time at 12.8 mg/kg, ip single dose on day 1; format: functional; conditions: route intraperitoneal
L1210 [3] = assay: Antitumor activity against mouse L1210 cells implanted in CDF1 mouse assessed as median survival time at 6.4 mg/kg, ip single dose on day 1; format: functional; conditions: route intraperitoneal
L1210 [4] = assay: Antitumor activity against mouse L1210 cells implanted in CDF1 mouse assessed as median survival time at 3.2 mg/kg, ip single dose on day 1; format: functional; conditions: route intraperitoneal
L1210 [5] = assay: Antitumor activity against mouse L1210 cells implanted in CDF1 mouse assessed as median survival time at 1.6 mg/kg, ip single dose on day 1; format: functional; conditions: route intraperitoneal
L1210 [6] = assay: Antitumor activity against mouse L1210 cells implanted in CDF1 mouse assessed as median survival time at 0.8 mg/kg, ip single dose on day 1; format: functional; conditions: route intraperitoneal
L1210 [7] = assay: Antitumor activity against mouse L1210 cells implanted in CDF1 mouse assessed as median survival time at 0.4 mg/kg, ip single dose on day 1; format: functional; conditions: route intraperitoneal
L1210 [8] = assay: Antitumor activity against mouse L1210 cells implanted in CDF1 mouse assessed as median survival time at 0.2 mg/kg, ip single dose on day 1; format: functional; conditions: route intraperitoneal
L1210 [9] = assay: Antitumor activity against mouse L1210 cells implanted in CDF1 mouse assessed as median survival time at 6.4 mg/kg, ip qd for 1 to 5 days; format: functional; conditions: route intraperitoneal
L1210 [10] = assay: Antitumor activity against mouse L1210 cells implanted in CDF1 mouse assessed as median survival time at 3.2 mg/kg, ip qd for 1 to 5 days; format: functional; conditions: route intraperitoneal
L1210 [11] = assay: Antitumor activity against mouse L1210 cells implanted in CDF1 mouse assessed as median survival time at 1.6 mg/kg, ip qd for 1 to 5 days; format: functional; conditions: route intraperitoneal
L1210 [12] = assay: Antitumor activity against mouse L1210 cells implanted in CDF1 mouse assessed as median survival time at 0.8 mg/kg, ip qd for 1 to 5 days; format: functional; conditions: route intraperitoneal
L1210 [13] = assay: Antitumor activity against mouse L1210 cells implanted in CDF1 mouse assessed as median survival time at 0.4 mg/kg, ip qd for 1 to 5 days; format: functional; conditions: route intraperitoneal
L1210 [14] = assay: Antitumor activity against mouse L1210 cells implanted in CDF1 mouse assessed as median survival time at 0.2 mg/kg, ip qd for 1 to 5 days; format: functional; conditions: route intraperitoneal
L1210 [15] = assay: Antitumor activity against mouse L1210 cells implanted in CDF1 mouse at 25.6 mg/kg, ip single dose on day 1 relative to control; format: functional; conditions: route intraperitoneal
L1210 [16] = assay: Antitumor activity against mouse L1210 cells implanted in CDF1 mouse at 12.8 mg/kg, ip single dose on day 1 relative to control; format: functional; conditions: route intraperitoneal
L1210 [17] = assay: Antitumor activity against mouse L1210 cells implanted in CDF1 mouse at 6.4 mg/kg, ip single dose on day 1 relative to control; format: functional; conditions: route intraperitoneal
L1210 [18] = assay: Antitumor activity against mouse L1210 cells implanted in CDF1 mouse at 3.2 mg/kg, ip single dose on day 1 relative to control; format: functional; conditions: route intraperitoneal
L1210 [19] = assay: Antitumor activity against mouse L1210 cells implanted in CDF1 mouse at 1.6 mg/kg, ip single dose on day 1 relative to control; format: functional; conditions: route intraperitoneal
L1210 [20] = assay: Antitumor activity against mouse L1210 cells implanted in CDF1 mouse at 0.8 mg/kg, ip single dose on day 1 relative to control; format: functional; conditions: route intraperitoneal
L1210 [21] = assay: Antitumor activity against mouse L1210 cells implanted in CDF1 mouse at 0.4 mg/kg, ip single dose on day 1 relative to control; format: functional; conditions: route intraperitoneal
L1210 [22] = assay: Antitumor activity against mouse L1210 cells implanted in CDF1 mouse at 0.2 mg/kg, ip single dose on day 1 relative to control; format: functional; conditions: route intraperitoneal
L1210 [23] = assay: Antitumor activity against mouse L1210 cells implanted in CDF1 mouse at 6.4 mg/kg, ip qd for 1 to 5 days relative to control; format: functional; conditions: route intraperitoneal
L1210 [24] = assay: Antitumor activity against mouse L1210 cells implanted in CDF1 mouse at 3.2 mg/kg, ip qd for 1 to 5 days relative to control; format: functional; conditions: route intraperitoneal
L1210 [25] = assay: Antitumor activity against mouse L1210 cells implanted in CDF1 mouse at 1.6 mg/kg, ip qd for 1 to 5 days relative to control; format: functional; conditions: route intraperitoneal
L1210 [26] = assay: Antitumor activity against mouse L1210 cells implanted in CDF1 mouse at 0.8 mg/kg, ip qd for 1 to 5 days relative to control; format: functional; conditions: route intraperitoneal
L1210 [27] = assay: Antitumor activity against mouse L1210 cells implanted in CDF1 mouse at 0.4 mg/kg, ip qd for 1 to 5 days relative to control; format: functional; conditions: route intraperitoneal
Mus musculus = assay: Toxicity in mouse L1210 cells implanted CDF1 mouse assessed as average weight gain at 25.6 mg/kg, ip single dose on day 1; format: organism-based; parameters: dose 25.6 mg/kg, route intraperitoneal; conditions: in vivo

CC[C@@]1(O)C[C@H](O[C@H]2C[C@H](NC)[C@H](O[C@H]3C[C@H](O)[C@H](O)[C@H](C)O3)[C@H](C)O2)c2c(cc3c(c2O)C(=O)c2c(O)ccc(O)c2C3=O)[C@H]1C(=O)OC [SCHAUNARDIMYCIN]
MST (L1210 [1]): 8 days
MST (L1210 [2]): 8 days
MST (L1210 [3]): 7 days
MST (L1210 [4]): 7 days
MST (L1210 [5]): 6.5 days
MST (L1210 [6]): 6 days
MST (L1210 [7]): 6 days
MST (L1210 [8]): 6 days
MST (L1210 [9]): 8 days
MST (L1210 [10]): 8 days
MST (L1210 [11]): 7.5 days
MST (L1210 [12]): 7 days
MST (L1210 [13]): 7 days
MST (L1210 [14]): 7 days
T/C (L1210 [15]): 133%
T/C (L1210 [16]): 133%
T/C (L1210 [17]): 117%
T/C (L1210 [18]): 117%
T/C (L1210 [19]): 108%
T/C (L1210 [20]): 100%
T/C (L1210 [21]): 100%
T/C (L1210 [22]): 100%
T/C (L1210 [23]): 133%
T/C (L1210 [24]): 133%
T/C (L1210 [25]): 125%
T/C (L1210 [26]): 117%
T/C (L1210 [27]): 117%
Activity (Mus musculus): -1.4 g
